Reference: patent publication US7659404B2, “Broad spectrum 2-(substituted-amino)-benzothiazole sulfonamide HIV protease inhibitors” (Tibotec Pharmaceuticals Ltd., priority 2001, dated 2010)
Read-outs that look alike come from different tables or passages of the source.

Experiments:
[1] = test system: clinically isolated HIV strain C; experiment: Antiviral spectrum, cellular assay (fold resistance), strain C; assay type: cell-based; details: FR=EC50(mutant strain)/EC50(HIV-1 strain LAI)
Method: (§1) HIV- or mock-infected MT4 cells were incubated for five days in the presence of various concentrations of the inhibitor. At the end of the incubation period, all HIV-infected cells have been killed by the replicating virus in the control cultures in the absence of any inhibitor. Cell viability is measured by measuring the concentration of MTT, a yellow, water soluble tetrazolium dye that is converted to a purple, water insoluble formazan in the mitochondria of living cells only. Upon solubilization of the resulting formazan crystals with isopropanol, the absorbance of the solution is monitored at 540 nm. The values correlate directly to the number of living cells remaining in the culture at the completion of the five day incubation. The inhibitory activity of the compound was monitored on the virus-infected cells and was expressed as EC50 and EC90. These values represent the amount of the compound required to protect 50% and 90%, respectively, of the cells from the cytopathogenic effect of the virus. The toxicity of the compound was measured on the mock-infected cells and was expressed as CC50, which represents the concentration of compound required to inhibit the growth of the cells by 50%. The selectivity index (SI) (ratio CC50/EC50) is an indication of the selectivity of the anti-HIV activity of the inhibitor.
(§2) Because of the increasing emergence of drug resistant HIV strains, the present compounds were tested for their potency against clinically isolated HIV strains harboring several mutations. These mutations are associated with resistance to protease inhibitors and result in viruses that show various degrees of phenotypic cross-resistance to the currently commercially available drugs such as for instance saquinavir, ritonavir, nelfinavir, indinavir and amprenavir.
(§3) As a measure of the broad spectrum activity of the present compounds, the fold resistance (FR) defined as FR=EC50(mutant strain)/EC50(HIV-1 strain LAI).

[2] = test system: clinically isolated HIV strain P; experiment: Antiviral spectrum, cellular assay (fold resistance), strain P; assay type: cell-based; details: FR=EC50(mutant strain)/EC50(HIV-1 strain LAI)
Method: as §1, §2, §3

[3] = test system: virus strain S (R13080); experiment: microbe, parasite or virus in culture; assay type: cell-based, HIV; details: FR=EC50(mutant strain)/EC50(HIV-1 strain LAI); strain S
In short: (§4)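 Activity against mutation-bearing clinical isolates is given as fold resistance, the ratio of mutant to HIV-1 LAI EC50. EC50 and EC90 reflect 50% and 90% protection of infected MT4 cells over a five-day culture. Cell survival was quantified by MTT formazan absorbance at 540 nm.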

[4] = test system: virus strain F (R13025); experiment: microbe, parasite or virus in culture; assay type: cell-based, HIV; details: FR=EC50(mutant strain)/EC50(HIV-1 strain LAI); strain F
In short: as §4

[5] = test system: clinically isolated HIV strain A; experiment: Antiviral spectrum, cellular assay (fold resistance), strain A; assay type: cell-based; details: FR=EC50(mutant strain)/EC50(HIV-1 strain LAI)
Method: as §1, §2, §3

[6] = test system: clinically isolated HIV strain K; experiment: Antiviral spectrum, cellular assay (fold resistance), strain K; assay type: cell-based; details: FR=EC50(mutant strain)/EC50(HIV-1 strain LAI)
Method: as §1, §2, §3

[7] = test system: clinically isolated HIV strain L; experiment: Antiviral spectrum, cellular assay (fold resistance), strain L; assay type: cell-based; details: FR=EC50(mutant strain)/EC50(HIV-1 strain LAI)
Method: as §1, §2, §3

[8] = test system: clinically isolated HIV strain B; experiment: Antiviral spectrum, cellular assay (fold resistance), strain B; assay type: cell-based; details: FR=EC50(mutant strain)/EC50(HIV-1 strain LAI)
Method: as §1, §2, §3

[9] = test system: clinically isolated HIV strain R; experiment: Antiviral spectrum, cellular assay (fold resistance), strain R; assay type: cell-based; details: FR=EC50(mutant strain)/EC50(HIV-1 strain LAI)
Method: as §1, §2, §3

[10] = test system: clinically isolated HIV strain O; assay type: cell-based; details: FR=EC50(mutant strain)/EC50(HIV-1 strain LAI)
In short: as §4

[11] = test system: clinically isolated HIV strain I; assay type: cell-based; details: FR=EC50(mutant strain)/EC50(HIV-1 strain LAI)
In short: as §4

[12] = test system: clinically isolated HIV strain T; assay type: cell-based; details: FR=EC50(mutant strain)/EC50(HIV-1 strain LAI)
In short: as §4

[13] = test system: clinically isolated HIV strain J; assay type: cell-based; details: FR=EC50(mutant strain)/EC50(HIV-1 strain LAI)
In short: as §4

[14] = test system: clinically isolated HIV strain H; assay type: cell-based; details: FR=EC50(mutant strain)/EC50(HIV-1 strain LAI)
In short: as §4

[15] = test system: clinically isolated HIV strain E; experiment: Antiviral spectrum, cellular assay (fold resistance), strain E; assay type: cell-based; details: FR=EC50(mutant strain)/EC50(HIV-1 strain LAI)
Method: as §1, §2, §3

[16] = test system: clinically isolated HIV strain Q; experiment: Antiviral spectrum, cellular assay (fold resistance), strain Q; assay type: cell-based; details: FR=EC50(mutant strain)/EC50(HIV-1 strain LAI)
Method: as §1, §2, §3

[17] = test system: clinically isolated HIV strain D; experiment: Antiviral spectrum, cellular assay (fold resistance), strain D; assay type: cell-based; details: FR=EC50(mutant strain)/EC50(HIV-1 strain LAI)
Method: as §1, §2, §3

[18] = test system: clinically isolated HIV strain N; experiment: Antiviral spectrum, cellular assay (fold resistance), strain N; assay type: cell-based; details: FR=EC50(mutant strain)/EC50(HIV-1 strain LAI)
Method: as §1, §2, §3

[19] = test system: clinically isolated HIV strain G; experiment: Antiviral spectrum, cellular assay (fold resistance), strain G; assay type: cell-based; details: FR=EC50(mutant strain)/EC50(HIV-1 strain LAI)
Method: as §1, §2, §3

[20] = test system: clinically isolated HIV strain M; experiment: Antiviral spectrum, cellular assay (fold resistance), strain M; assay type: cell-based; details: FR=EC50(mutant strain)/EC50(HIV-1 strain LAI)
Method: as §1, §2, §3

[21] = test system: HIV-1 strain LAI; experiment: Cellular anti-HIV assay in MT4 cells (MTT), wild type laboratory strain; assay type: cell-based; details: read-out: EC50 value against HIV-1 strain LAI
Method: The compounds of the present invention were examined for anti-viral activity in a cellular assay. […] The cellular assay was performed according to the following procedure.
Cellular Assay Experimental Method:
as §1

[22] = Human immunodeficiency virus 1, 120 h, MT4 cells, five days, MTT
[23] = Human immunodeficiency virus 1, MT4, 120 h

## CC(=O)Nc1nc2ccc(S(=O)(=O)N(CC(C)C)CC(O)C(Cc3ccccc3)NC(=O)OC3COC4OCCC34)cc2s1 (mixture of isomers) [Compound 1]
[1]
  fold resistance (FR), strain C: 0.7
[2]
  fold resistance (FR), strain P: 0.2
[3]
  fold resistance (FR), strain S: 1.0
[4]
  fold resistance (FR), strain F: 0.8
[5]
  fold resistance (FR), strain A: 0.4
[6]
  fold resistance (FR), strain K: 0.4
[7]
  fold resistance (FR), strain L: 0.2
[8]
  fold resistance (FR), strain B: 0.3
[9]
  fold resistance (FR), strain R: 0.7
[10]
  fold resistance (FR), strain O: 0.4
[11]
  fold resistance (FR), strain I: 0.8
[12]
  fold resistance (FR), strain T: 5.1
[13]
  fold resistance (FR), strain J: 0.5
[14]
  fold resistance (FR), strain H: 0.9
[15]
  fold resistance (FR), strain E: 0.6
[16]
  fold resistance (FR), strain Q: 0.8
[17]
  fold resistance (FR), strain D: 0.7
[18]
  fold resistance (FR), strain N: 1.0
[19]
  fold resistance (FR), strain G: 0.3
[20]
  fold resistance (FR), strain M: 0.5

## CC(C)CN(CC(O)C(Cc1ccccc1)NC(=O)OC1COC2OCCC12)S(=O)(=O)c1ccc2nc(NC(=O)CN(C)C)sc2c1 (mixture of isomers) [Compound 3]
[1]
  fold resistance (FR), strain C: 0.4
[2]
  fold resistance (FR), strain P: 0.4
[3]
  fold resistance (FR), strain S: 1.8
[4]
  fold resistance (FR), strain F: 1.1
[5]
  fold resistance (FR), strain A: 0.4
[7]
  fold resistance (FR), strain L: 0.3
[9]
  fold resistance (FR), strain R: 0.5
[10]
  fold resistance (FR), strain O: 1.0
[11]
  fold resistance (FR), strain I: 0.8
[12]
  fold resistance (FR), strain T: 34.2
[14]
  fold resistance (FR), strain H: 1.0
[15]
  fold resistance (FR), strain E: 0.4
[16]
  fold resistance (FR), strain Q: 0.5
[17]
  fold resistance (FR), strain D: 0.8
[18]
  fold resistance (FR), strain N: 2.3
[19]
  fold resistance (FR), strain G: 0.4

## CC(C)CN(C[C@@H](O)[C@H](Cc1ccccc1)NC(=O)OC1COC2OCCC12)S(=O)(=O)c1ccc2nc(NCCN(C)C)sc2c1 (mixture of isomers) [Compound 4]
[21]; [22]
  EC50: < 50 nM
[3]
  fold resistance (FR), strain S: 2.9
[4]
  fold resistance (FR), strain F: 2.2
[10]
  fold resistance (FR), strain O: 0.5
[11]
  fold resistance (FR), strain I: 1.2
[12]
  fold resistance (FR), strain T: 48.8
[13]
  fold resistance (FR), strain J: 0.5
[14]
  fold resistance (FR), strain H: 1.9

## CC(C)CN(CC(O)C(Cc1ccccc1)NC(=O)OC1COC2OCCC12)S(=O)(=O)c1ccc2nc(NC(=O)CN(C)C)sc2c1 (centres unmarked) [Compound 11]
[21]; [22]
  EC50: < 50 nM
[1]
  fold resistance (FR), strain C: 0.5
[2]
  fold resistance (FR), strain P: 0.3
[3]
  fold resistance (FR), strain S: 1.1
[4]
  fold resistance (FR), strain F: 0.7
[5]
  fold resistance (FR), strain A: 0.3
[6]
  fold resistance (FR), strain K: 0.4
[7]
  fold resistance (FR), strain L: 0.3
[8]
  fold resistance (FR), strain B: 0.4
[9]
  fold resistance (FR), strain R: 0.5
[10]
  fold resistance (FR), strain O: 0.7
[11]
  fold resistance (FR), strain I: 0.5
[12]
  fold resistance (FR), strain T: 7.3
[13]
  fold resistance (FR), strain J: 0.4
[14]
  fold resistance (FR), strain H: 0.9
[16]
  fold resistance (FR), strain Q: 0.0
[17]
  fold resistance (FR), strain D: 0.3
[18]
  fold resistance (FR), strain N: 1.6
[19]
  fold resistance (FR), strain G: 0.5
[20]
  fold resistance (FR), strain M: 0.4

## CC(=O)N(CCN1CCCC1)c1nc2ccc(S(=O)(=O)N(CC(C)C)CC(O)C(Cc3ccccc3)NC(=O)OC3COC4OCCC34)cc2s1 (centres unmarked) [Compound 19]
[21]; [22]
  EC50: < 50 nM
[3]
  fold resistance (FR), strain S: 2.2
[4]
  fold resistance (FR), strain F: 2.4
[10]
  fold resistance (FR), strain O: 0.5
[11]
  fold resistance (FR), strain I: 1.1
[12]
  fold resistance (FR), strain T: 10.5
[13]
  fold resistance (FR), strain J: 0.6
[14]
  fold resistance (FR), strain H: 2.1

## CC(C)CN(CC(O)C(Cc1ccccc1)NC(=O)OC1COC2OCCC12)S(=O)(=O)c1ccc2nc(NCC[N+](C)(C)[O-])sc2c1 (centres unmarked) [Compound 27]
[21]; [23]
  EC50: > 500 nM
[3]
  fold resistance (FR), strain S: 5.1
[4]
  fold resistance (FR), strain F: 1.4
[10]
  fold resistance (FR), strain O: 0.6
[11]
  fold resistance (FR), strain I: 1.3
[12]
  fold resistance (FR), strain T: 5.4
[13]
  fold resistance (FR), strain J: 0.7
[14]
  fold resistance (FR), strain H: 1.2

## CC(=O)N(C)c1nc2ccc(S(=O)(=O)N(Cc3ccccn3)CC(O)C(Cc3ccccc3)NC(=O)OC3COC4OCCC34)cc2s1 (centres unmarked) [Compound 33]
[21]; [22]
  EC50: < 50 nM
[3]
  fold resistance (FR), strain S: 467.3
[4]
  fold resistance (FR), strain F: 7.6
[10]
  fold resistance (FR), strain O: 3.4
[11]
  fold resistance (FR), strain I: 7.1
[12]
  fold resistance (FR), strain T: 467.3
[13]
  fold resistance (FR), strain J: 5.9
[14]
  fold resistance (FR), strain H: 6.8

## CC(C)CN(CC(O)C(Cc1ccccc1)NC(=O)OC1COCC1N(C)C)S(=O)(=O)c1ccc2nc(NCCN(C)C)sc2c1 (centres unmarked) [Compound 44]
[21]; [23]
  EC50: 50 to 500 nM
[3]
  fold resistance (FR), strain S: 89.3
[4]
  fold resistance (FR), strain F: 80.2
[10]
  fold resistance (FR), strain O: 11.2
[11]
  fold resistance (FR), strain I: 7.5
[12]
  fold resistance (FR), strain T: 89.3
[13]
  fold resistance (FR), strain J: 29.5
[14]
  fold resistance (FR), strain H: 29.4

## CC(C)CN(CC(O)C(Cc1ccccc1)NC(=O)OC1CCOC1)S(=O)(=O)c1ccc2nc(NCCN(C)C)sc2c1 (centres unmarked) [Compound 56]
[21]; [23]
  EC50: < 50 nM
[3]
  fold resistance (FR), strain S: 67.1
[4]
  fold resistance (FR), strain F: 33.1
[10]
  fold resistance (FR), strain O: 2.1
[11]
  fold resistance (FR), strain I: 3.2
[12]
  fold resistance (FR), strain T: 509.6
[13]
  fold resistance (FR), strain J: 2.8
[14]
  fold resistance (FR), strain H: 4.6

## CCN1CCCC1CNc1nc2ccc(S(=O)(=O)N(CC(C)C)C[C@@H](O)[C@H](Cc3ccccc3)NC(=O)O[C@H]3CO[C@H]4OCC[C@H]43)cc2s1 (some centres unmarked) [Compound 93]
[21]; [22]
  EC50: < 50 nM
[3]
  fold resistance (FR), strain S: 4.68
[4]
  fold resistance (FR), strain F: 1.1
